Measurements taken from patent publication US8455397B2, “Penoxsulam as a turfgrass, vineyard and orchard floor herbicide” (Dow AgroSciences, LLC, priority 2005, dated 2013).

What was measured:
white clover (TRFRE) = assay: Postemergent granule herbicides, turfgrass field studies; format: in vivo, Trifolium repens L.
Description: (§1) Field studies were conducted in established turfgrass sites containing a natural population of target broadleaf weeds. Replicated trials, containing a minimum of three replications and having individual plots ranging in size from 25 to 50 ft. sq (2.3 to 4.6 square meters), were initiated in the late spring when turf and weeds were actively growing. Granule treatments were uniformly applied to individual plots using a common hand-shaker method. Applications were made in the early morning when dew was present. Natural rainfall and supplemental irrigation were used to maintain healthy turf and active weed growth throughout the study period. Control of each weed species in the study site was made at 2, 4 and 8 weeks after treatment. Control was determined visually by comparing treated and untreated weeds and scored on a 0 to 100 percent scale where 0 corresponds to no control and 100 corresponds to complete kill.

[1] = tested on: Virginia buttonweed (DIQVI); assay: as above; format: in vivo, Diodia virginiana L.; conditions: Table III, 1 site
Description: as §1

[2] = tested on: pennywort (dollarweed) (HYDSS); assay: as above; format: in vivo, Hydrocotyle spp; conditions: Table III, 1 site
Description: as §1

[3] = tested on: Hydrocotyle species (HYDSS); assay: Post emergent synergy field study, penoxsulam + dicamba granule; format: in vivo; conditions: average of 2 studies 4 weeks after application
Description: as §1, with “Field and greenhouse studies were conducted to determine if there may be any synergistic response when penoxsulam is combined with other herbicides for post emergence broadleaf or sedge control. Field” for “Field”
Component A was penoxsulam at 0.02 or 0.04 lb ai/A. Component B was dicamba at 0.1 lb ai/A. Individual products and mixture were applied on a 30-3-4 granule fertilizer formulated to deliver 116 pounds fertilizer per acre (129 kg per hectare). Loadings for the individual component on the fertilizer were: • Penoxsulam 22.4 gai/Ha (0.02 lb ai/A)=0.017% • Penoxsulam 44.9 gai/Ha (0.04 lb ai/A)=0.034% • Dicamba 112 gae/Ha (0.1 lb ai/A)=0.086%
For combinations the same loadings were applied to the same granule carrier and applied as a single product to test area.

sun spurge (EPHHE) = assay: Pre-emergence orchard floor weeds, greenhouse study; format: in vivo, Euphorbia helioscopia; conditions: 28 Days After Application
Description: (§2) Greenhouse studies were conducted by seeding species in a loam soil and applying the herbicides to the soil surface using a Cornwall 5 milliliter glass syringe fitted with a TeeJet TN-3 nozzle on an area basis Immediately following herbicide application the pots were irrigated over the top to move the herbicides into the seeding zone. Pots were kept well irrigated throughout the trial. A percent visual weed control assessment was taken 4 weeks after application. Control was determined visually by comparing treated and untreated pots and scored on a 0 to 100 percent scale where 0 corresponds to no control and 100 corresponds to complete kill, or no emergence.

little mallow (MALPA) = assay: as above; format: in vivo, Malva parviflora; conditions: 28 Days After Application
Description: as §2

redroot pigweed (AMARE) = assay: Pre-emergence weed nursery field study; format: in vivo, Amaranthus retroflexus; conditions: weed nursery in the field, 27 Days After Application
Description: (§3) Field studies were conducted in a non-fumigated weed nursery trial. Weed species were planted in single strips with a row planter at 36 centimeter spacing. Plot size was 3.05×9.2 meters, 4 replicate plots per treatment. Weed species were seeded at appropriate depths and later the same day pre-emergent applications were made to the soil surface. Liquid applications were made using a backpack sprayer calibrated to deliver 187 liters per hectare (L/ha). Applications were made in Fresno, Calif. in June. Sprinkler irrigation was applied at regular intervals throughout study period. Control of each weed species in the study site was made 4 weeks after treatment. Control was determined visually by comparing treated and untreated weeds and scored on a 0 to 100 percent scale where 0 corresponds to no control and 100 corresponds to complete kill or no emergence.

common purslane (POROL) = assay: Pre-emergence weed nursery field study; format: in vivo, Portulaca oleracea; conditions: weed nursery in the field, 27 Days After Application
Description: as §3

[4] = 4 Weeks After Treatment, 22.4 gai/Ha
[5] = 4 Weeks After Treatment, 44.9 gai/Ha
[6] = 4 Weeks After Treatment, 67.3 gai/Ha
[7] = 4 Weeks After Treatment, 100 gai/Ha
[8] = 8 Weeks After Treatment, 22.4 gai/Ha
[9] = 8 Weeks After Treatment, 44.9 gai/Ha
[10] = 8 Weeks After Treatment, 67.3 gai/Ha
[11] = 8 Weeks After Treatment, 100 gai/Ha

SMILES: COc1cnc(OC)n2nc(NS(=O)(=O)c3c(OCC(F)F)cccc3C(F)(F)F)nc12 [Penoxsulam, 2-(2,2-difluoroethoxy)-N-(5,8-dimethoxy[1,2,4]triazolo[1,5-c]-pyrimidin-2-yl)-6-(trifluoromethyl)benzenesulfonamide]
- Mean Percent Weed Control (white clover (TRFRE); Table I, 4 Weeks After Treatment, 8 sites, Penoxsulam 140 gai/Ha, Scotts Plus 2 1682+841 gae/Ha, Trimec 1121+516+112 gae/Ha): 93%
- Mean Percent Weed Control (white clover (TRFRE); Table I, 8 Weeks After Treatment, 7 sites, Penoxsulam 140 gai/Ha, Scotts Plus 2 1682+841 gae/Ha, Trimec 1121+516+112 gae/Ha): 94%
- Mean Percent Weed Control (white clover (TRFRE); Table III, 4 Weeks After Treatment, 22.4 gai/Ha, 8 sites): 85%
- Mean Percent Weed Control (white clover (TRFRE); Table III, 4 Weeks After Treatment, 44.9 gai/Ha, 8 sites): 94%
- Mean Percent Weed Control (white clover (TRFRE); Table III, 4 Weeks After Treatment, 67.3 gai/Ha, 8 sites): 96%
- Mean Percent Weed Control (white clover (TRFRE); Table III, 4 Weeks After Treatment, 100 gai/Ha, 8 sites): 96%
- Mean Percent Weed Control (white clover (TRFRE); Table III, 8 Weeks After Treatment, 22.4 gai/Ha, 8 sites): 74%
- Mean Percent Weed Control (white clover (TRFRE); Table III, 8 Weeks After Treatment, 44.9 gai/Ha, 8 sites): 88%
- Mean Percent Weed Control (white clover (TRFRE); Table III, 8 Weeks After Treatment, 67.3 gai/Ha, 8 sites): 91%
- Mean Percent Weed Control (white clover (TRFRE); Table III, 8 Weeks After Treatment, 100 gai/Ha, 8 sites): 97%
- Mean Percent Weed Control [1, 4]: 67%
- Mean Percent Weed Control [1, 5]: 76%
- Mean Percent Weed Control [1, 6]: 93%
- Mean Percent Weed Control [1, 7]: 92%
- Mean Percent Weed Control [1, 8]: 48%
- Mean Percent Weed Control [1, 9]: 63%
- Mean Percent Weed Control [1, 10]: 87%
- Mean Percent Weed Control [1, 11]: 78%
- Mean Percent Weed Control [2, 4]: 50%
- Mean Percent Weed Control [2, 5]: 97%
- Mean Percent Weed Control [2, 6]: 98%
- Mean Percent Weed Control [2, 7]: 100%
- Mean Percent Weed Control [2, 8]: 40%
- Mean Percent Weed Control [2, 9]: 93%
- Mean Percent Weed Control [2, 10]: 84%
- Mean Percent Weed Control [2, 11]: 97%
- % Control Component A ([3]; 22.4 gai/Ha on 30-3-4 granule fertilizer): 37%
- % Control Component A ([3]; 44.9 gai/Ha on 30-3-4 granule fertilizer): 59%
- Pre-emergent Percent Mean Control (sun spurge (EPHHE); 8.8 gai/Ha): 87%
- Pre-emergent Percent Mean Control (sun spurge (EPHHE); 17.5 gai/Ha): 97%
- Pre-emergent Percent Mean Control (sun spurge (EPHHE); 35 gai/Ha): 98%
- Pre-emergent Percent Mean Control (sun spurge (EPHHE); 70 gai/Ha): 100%
- Pre-emergent Percent Mean Control (little mallow (MALPA); 8.8 gai/Ha): 74%
- Pre-emergent Percent Mean Control (little mallow (MALPA); 17.5 gai/Ha): 87%
- Pre-emergent Percent Mean Control (little mallow (MALPA); 35 gai/Ha): 93%
- Pre-emergent Percent Mean Control (little mallow (MALPA); 70 gai/Ha): 100%
- Pre-emergent Percent Mean Control (redroot pigweed (AMARE); 8.8 gai/Ha): 100%
- Pre-emergent Percent Mean Control (redroot pigweed (AMARE); 17.5 gai/Ha): 100%
- Pre-emergent Percent Mean Control (redroot pigweed (AMARE); 35 gai/Ha): 100%
- Pre-emergent Percent Mean Control (redroot pigweed (AMARE); 70 gai/Ha): 100%
- Pre-emergent Percent Mean Control (common purslane (POROL); 8.8 gai/Ha): 96%
- Pre-emergent Percent Mean Control (common purslane (POROL); 17.5 gai/Ha): 97%
- Pre-emergent Percent Mean Control (common purslane (POROL); 35 gai/Ha): 99%
- Pre-emergent Percent Mean Control (common purslane (POROL); 70 gai/Ha): 100%
